Values of other authors, collected in patent US20220218582A1, “METHOD FOR DYEING KERATINOUS MATERIAL, COMPRISING THE USE OF AN ORGANOSILICON COMPOUND, A CHROMOPHORIC COMPOUND, A MODIFIED FATTY ACID ESTER AND A SEALING REAGENT I” (Henkel AG & Co. KGaA, priority 2019, published 2022).

Conditions: 25° C.

Molecule | solubility in water (in words) | solubility in water
O=S(=O)([O-])c1ccc(N=Nc2c(O)ccc3ccccc23)cc1.[Na+] [Acid Orange 7, sodium salt of 4-[(2-hydroxy-1-naphthyl)azo]benzene sulphonate] | – | more than 7 g/L
Nc1cc(S(=O)(=O)[O-])cc2cc(S(=O)(=O)[O-])c(N=Nc3ccccc3)c(O)c12.[Na+].[Na+] [Acid Red 33, disodium salt of 5-amino-4-hydroxy-3-(phenylazo)-naphthalene-2,7-disulphonate] | – | 2.5 mg/mL
O=C([O-])c1c(Cl)c(Cl)c(Cl)c(Cl)c1-c1c2c(Br)cc(=O)c(Br)c-2oc2c(Br)c(O)cc(Br)c12.O=C([O-])c1c(Cl)c(Cl)c(Cl)c(Cl)c1-c1c2c(Br)cc(=O)c(Br)c-2oc2c(Br)c(O)cc(Br)c12.[Na+].[Na+] [Acid Red 92, disodium salt of 3,4,5,6-tetrachloro-2-(1,4,5,8-tetrabromo-6-hydroxy-3-oxoxanthen-9-yl)benzoic acid] | – | greater than 10 g/L
O=C([O-])C1=NN(c2ccc(S(=O)(=O)[O-])cc2)C(=O)C1N=Nc1ccc(S(=O)(=O)[O-])cc1.[Na+].[Na+].[Na+] (centres unmarked) [Acid Yellow 23, trisodium salt of 4,5-dihydro-5-oxo-1-(4-sulfophenyl)-4-((4-sulfophenyl)azo)-1H-pyrazole-3-carboxylic acid] | highly soluble | –
mixture of the sodium salts of mono- and disulfonic acids of 2-(2-quinolyl)-1H-indene-1,3(2H)-dione [Acid Yellow 3] | – | 20 mg/mL
